The text below walks through data of US7935823B2 (priority 2007, dated 2011).

Broadly, the Ki is the dissociation constant of the complex between target and ligand, obtained from inhibition or displacement.

Data set [1] concerns ion channels associated with glutamate receptors. Nature of the data set: Glutamate-stimulated calcium-ion uptake in rat brain synaptosomes. Conditions: P2-fraction of synaptosomes from newborn rat brain; initial screening 5 uM. The procedure:
Evaluation of the calcium-blocking properties of dimebon was conducted with P2-fraction of synaptosomes, which were isolated from the brain of newborn (8-11 days) rats according to the protocol described in [Bachurin et al. Neuroprotective and cognition enhancing properties of MK-801 flexible analogs. Structure-activity relationships./Ann. N.Y. Acad. Sci., 2001, v. 939, pp. 219-235]. In this test, the ability of the compounds to inhibit a specific uptake of calcium ions via ion channels associated with glutamate receptors was determined.
Synaptosomes were placed into the incubation buffer A (132 mM NaCl, 5 mM KCl, 5 mM HEPES) and were kept at 0 degrees Celsius (“C”) during the entire experiment. Aliquots of synaptosomes (50µl) were placed in the media A, containing investigated compounds and a preparation of the radiolabeled calcium, ^45Ca. […] A specific calcium uptake was calculated using the following equation K(43/21)=[(Ca4−Ca3)/(Ca2−Ca1)]*100% where: Ca1 is a calcium uptake in a control experiment (no glutamate or test compound added); Ca2 is a calcium uptake in the presence of glutamate only (Glutamate Induced Calcium Uptake—GICU); Ca3 is a calcium uptake in the presence of a test compound only (no glutamate added); Ca4 is a calcium uptake in the presence of both glutamate and a test compound.

Data set [2] deals with C57/B female mice. Nature of the data set: Geroprotector activity in aging mice. Type of data set: in vivo. Conditions: 3 mg/kg per day in drinking water. The procedure: Dimebon was evaluated as an agent that prolongs life and improves the quality of life (characterized by changes in the amount of pathologies that accompany ageing) in the laboratory animals.
Experiments were conducted with C57/B female mice, starting from their age of 12 months. Mice were kept on cells, 10 animals per a cell. Both control and experimental group included 50 animals in each group. […] The day-night cycle was 12 hours.
Prior to the experiment, daily and weekly water consumption by the animals in one cell was measured. Dimebon was added in water in such amount that each animal would consume 3 mg/kg of Dimebon per day in average. Bottles with water containing Dimebon were replaced every 7 days. Animals in the control group were receiving pure water.
Prior to the experiment, all the animals were weighed, and an average weight was determined in every group, every cell, as well as the weight of all animals in every cell. The condition of skin, hair, and eyes were also determined by visual inspection. […] Evaluation of all these parameters was conducted on a monthly basis.
Statistics were calculated using Student T-test and ‘Chi-squared’ criteria.

Data set [3] addresses acetylcholinesterase (Homo sapiens, UniProt P22303). As to conditions: recombinant enzyme and fresh blood samples from three volunteers; read-out: acetylcholinesterase half-maximal inhibitory concentration (IC50); cited from earlier work.
The target in data set [4] is NMDA receptor. As to conditions: read-out: NMDA receptor inhibition constant (Ki); cited from earlier work.
For data set [5] the following is noted: human clinical studies; cited from earlier work.
In data set [6] the test system is SK—N—SH human neuroblastoma cells. Conditions: ionomycin-treated cells (70 percent without drug); picomolar concentrations; cited from earlier work.
Data set [7] shares this test system. Conditions: ionomycin-treated cells (40 percent without drug); picomolar concentration; cited from earlier work.
Data set [8] has as its system neuroblastoma line (SH—SY5Y). Conditions: pre-treatment with one nano-molar; cited from earlier work.
Data set [9] relates to primary rat cortical neurons. As to conditions: cultured three days; picomolar concentrations; compared with BDNF at maximally effective concentrations; cited from earlier work.
In data set [10] the test system is patients with mild to moderate AD. Conditions: cited from earlier work.
Data set [11] relates to mitochondrial permeability transition pores. Conditions: MPP(+) and beta-amyloid fragment 25-35; cited from earlier work.

Sequence of acetylcholinesterase (P22303 32-574 limits assumed): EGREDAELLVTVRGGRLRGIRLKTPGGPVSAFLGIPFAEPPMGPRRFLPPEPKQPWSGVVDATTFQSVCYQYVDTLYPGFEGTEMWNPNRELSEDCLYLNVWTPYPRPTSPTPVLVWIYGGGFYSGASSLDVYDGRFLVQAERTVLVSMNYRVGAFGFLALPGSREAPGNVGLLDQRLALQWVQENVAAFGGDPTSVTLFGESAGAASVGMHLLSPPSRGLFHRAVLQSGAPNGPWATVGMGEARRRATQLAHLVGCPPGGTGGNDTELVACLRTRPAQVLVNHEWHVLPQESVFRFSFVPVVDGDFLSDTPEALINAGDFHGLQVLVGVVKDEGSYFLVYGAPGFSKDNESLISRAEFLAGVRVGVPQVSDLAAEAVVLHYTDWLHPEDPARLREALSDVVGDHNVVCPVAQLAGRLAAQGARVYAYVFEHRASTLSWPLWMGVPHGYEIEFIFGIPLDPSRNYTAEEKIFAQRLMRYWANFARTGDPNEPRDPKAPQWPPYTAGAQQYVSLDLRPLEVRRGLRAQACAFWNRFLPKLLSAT

Consider `Cc1ccc2c(c1)c1c(n2CCc2ccc(C)nc2)CCN(C)C1` [dimebon], for which the “calcium-blocking properties (specific glutamate-induced 45Ca uptake)” value in data set [1] is listed as “pronounced calcium-blocking properties”. Besides, in data set [2], the age-related weight depletion entry is “No weight depletion was observed”; the “development of non-fatal pathologies (loss of vision and alopecia)” value is on record as “slowing of the development of non-fatal pathologies”. For the same compound, in data set [2] (from age 12 months), the probability of death entry is listed as “lower in all age groups”. Further, the “amount of animals with cataract vs control” value in data set [2] (13 to 20 months old mice) is on record as “significantly less”. Moreover, the IC50 in data set [3] was 31 to 72 µM. For the same compound, the Ki in data set [4] was 97 µM. Besides, the “participants/patients reporting gastrointestinal problems” value in data set [5] is “less than 3%”. The “JC-1 red/green ratio relative to control cells” value in data set [6] was 85-90%. In data set [7], the “cell survival (MTT) relative to control cells” value was 75-85%. In [8], the “protection of mitochondrial function (TMRM probe)” value was “protected cells from ionomycin-induced stress”. Besides, in data set [9], the neurite outgrowth entry is given as “increased neurite outgrowth as well as did BDNF”. Besides, in data set [10] (one-year randomized double-blinded placebo-controlled trial, 183 patients), the “clinical endpoints and tolerability in one-year trial” value is “met all five clinical endpoints with strong statistical significance, and was very well tolerated”. Besides, the safety and tolerability result in data set [10] (six-month open-label extension, exposure to 18 months) is “no safety or tolerability issues”. Besides, the “prevention of neurotoxin-induced opening of mitochondrial pores” value in [11] is reported as “prevented”.
